Assay results as given in PubChem BioAssay (NCI).
Where “and” joins values, the source holds several entries; their conditions need not be identical. Equal entries are not always repeated.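 In this assay, cells in 96-well plates receive the compound at five concentrations for 48 hours. Endpoints are linearly interpolated between the surrounding concentrations. GI50 is the concentration that inhibits growth by half. TGI denotes the concentration required for complete inhibition of growth.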

Columns and labels:
Test in all cases: DTP human tumour cell line panel, 48 h
[1] = system: NCI-H522 lung
[2] = system: 786-0 renal
[3] = system: NCI-H23 lung
[4] = system: OVCAR-3 ovarian
[5] = system: OVCAR-4 ovarian
[6] = system: A498 renal
[7] = system: CAKI-1 renal
[8] = system: MOLT-4 leukemia
[9] = system: HT29 colon
[10] = system: A549 NSCLC

## O=c1cc(CNc2cc(F)cc(F)c2)c2ccc(I)cc2[nH]1
[1]
  GI50: 305 nM
  TGI: > 100 µM
[2]
  GI50: 1.05 µM
  TGI: > 100 µM
[3]
  GI50: 6.36 µM
  TGI: > 100 µM
[4]
  GI50: 336 nM
  TGI: 39.6 µM
[5]
  GI50: 72.7 µM
  TGI: > 100 µM
[6]
  GI50: 0.279 µM
[7]
  GI50: 421 nM
  TGI: > 100 µM
[8]
  GI50: 1060 nM
  TGI: > 100 µM
[9]
  GI50: 0.361 µM
  TGI: > 100 µM
[10]
  GI50: 707 nM
  TGI: > 100 µM

## Cn1c(=O)c2[nH]c(/N=N/N3CCN(CCO)CC3)nc2n(C)c1=O
[1]
  TGI: > 100 µM
[2]
  TGI: > 100 µM
[3]
  TGI: > 100 µM
[4]
  TGI: > 100 µM
[5]
  TGI: > 100 µM
[6]
  TGI: > 100 µM
[7]
  TGI: > 100 µM
[8]
  TGI: > 100 µM
[9]
  TGI: > 100 µM
[10]
  TGI: > 100 µM

## CC12CCC(=O)C=C1CCC1C2CCC2(C)C(C(=O)Cn3cnc4c(=S)nc[nH]c43)CCC12 (centres undefined)
[1]
  TGI: > 100 µM
[2]
  TGI: > 100 µM
[3]
  TGI: 82.5 µM
[4]
  TGI: 49.6 µM
[5]
  TGI: 55 µM
[6]
  TGI: 79 µM
[7]
  TGI: > 100 µM
[8]
  TGI: > 100 µM
[9]
  TGI: > 100 µM
[10]
  TGI: > 100 µM

## O=C(Nc1cccc(Cl)c1)Nc1ncc(CCNc2ncnc3ccsc23)s1
[1]
  GI50: 1760 nM and 1340 nM
  TGI: 9.89 µM and > 10 µM
[2]
  GI50: 7.55 µM and 6.41 µM
  TGI: 41.1 µM and > 10 µM
[3]
  GI50: 2.08 µM and 2.49 µM
  TGI: 20.1 µM and > 10 µM
[4]
  GI50: 4060 nM and 1060 nM
  TGI: 17.1 µM and > 10 µM
[5]
  GI50: 2.1 µM and 2.93 µM
  TGI: 11.9 µM and > 10 µM
[6]
  GI50: 2.51 µM and 1.17 µM
  TGI: 17.9 µM and > 10 µM
[7]
  GI50: 1120 nM and 1340 nM
  TGI: 22.8 µM and > 10 µM
[8]
  GI50: 2850 nM and 1730 nM
  TGI: > 27.8 µM and 4.99 µM
[9]
  GI50: 3.33 µM and 3.03 µM
  TGI: 23.1 µM and > 10 µM
[10]
  GI50: 748 nM and 493 nM
  TGI: 16.1 µM and > 10 µM

## COc1cc2c(cc1OC)-c1ccc3cc4c(cc3c1N(CCN1CCCC1)C2)OCO4
[1]
  GI50: 217 nM
  TGI: 1.43 µM
[2]
  GI50: 0.477 µM
  TGI: 1.92 µM
[3]
  GI50: 0.447 µM
  TGI: 2.14 µM
[4]
  GI50: 854 nM
  TGI: 2.23 µM
[5]
  GI50: 0.858 µM
  TGI: 6.49 µM
[6]
  GI50: 1.57 µM
  TGI: 4.63 µM
[7]
  GI50: 814 nM
  TGI: 11.5 µM
[8]
  GI50: 228 nM
  TGI: 3.44 µM
[9]
  GI50: 0.313 µM
  TGI: 1.47 µM
[10]
  GI50: 534 nM
  TGI: 2.02 µM

## CC(C)(O)c1ccc(N2CCN(c3nnc(Cc4ccccc4)c4ccccc34)CC2)nc1
[1]
  GI50: 6320 nM
  TGI: 20.7 µM
[2]
  GI50: 14.6 µM
  TGI: 45.7 µM
[3]
  GI50: 5.68 µM
  TGI: 28.4 µM
[4]
  GI50: 10400 nM
  TGI: 47.5 µM
[5]
  GI50: 3.99 µM
  TGI: 26.3 µM
[6]
  GI50: 13.9 µM
  TGI: 42.5 µM
[7]
  GI50: 11300 nM
  TGI: 30.9 µM
[8]
  GI50: 5400 nM
  TGI: 25.7 µM
[9]
  GI50: 12 µM
  TGI: 37.7 µM
[10]
  GI50: 6980 nM
  TGI: 25.1 µM

## CC1=C2CCCC2C/C(=N/Nc2ccc([N+](=O)[O-])cc2[N+](=O)[O-])CC1 (centres undefined)
[1]
  TGI: > 100 µM
[2]
  TGI: > 100 µM
[3]
  TGI: > 100 µM
[4]
  TGI: > 100 µM
[5]
  TGI: > 100 µM
[6]
  TGI: > 100 µM
[7]
  TGI: > 100 µM
[8]
  TGI: > 100 µM
[9]
  TGI: > 100 µM
[10]
  TGI: > 100 µM

## CCc1ccc(NCc2cc(OC)c(OC)c(OC)c2)cc1
[1]
  GI50: 274 nM
  TGI: 0.59 µM and 0.807 µM
[2]
  GI50: 0.369 µM and 0.77 µM
  TGI: 17.3 µM and > 38.5 µM
[3]
  TGI: 24.8 µM and 15.1 µM
[4]
  GI50: 348 nM
  TGI: 1.32 µM
[5]
  TGI: > 100 µM
[6]
  GI50: 2.28 µM and 3.85 µM
  TGI: 20.6 µM and 49 µM
[7]
  TGI: > 100 µM
[8]
  TGI: 87.2 µM and > 91.5 µM
[9]
  TGI: 1.72 µM and 1.39 µM
[10]
  GI50: 693 nM and 216 nM
  TGI: 98.2 µM and > 92.2 µM

## NC(=O)[C@H]1CCN(c2ncnc(N)c2F)C[C@@H]1N1CCC[C@@H](Nc2cc(Cl)cc(C(F)(F)F)c2)C1=O
[1]
  GI50: 7110 nM
  TGI: 28.4 µM
[2]
  GI50: 21.8 µM
  TGI: > 100 µM
[3]
  GI50: 20.8 µM
  TGI: 65.8 µM
[4]
  GI50: 28500 nM
  TGI: > 100 µM
[5]
  GI50: 15.6 µM
  TGI: 95.3 µM
[6]
  GI50: 3.25 µM
  TGI: 18.7 µM
[7]
  GI50: 6670 nM
  TGI: 89.7 µM
[8]
  GI50: 4930 nM
  TGI: 65.9 µM
[9]
  GI50: 5.29 µM
  TGI: 55.1 µM
[10]
  GI50: 15800 nM
  TGI: > 100 µM

## Fc1ccc2[nH]cc(Cc3c[nH]c4ccc(F)cc34)c2c1
[1]
  GI50: 14300 nM
  TGI: 36.3 µM
[2]
  GI50: 17.1 µM
  TGI: 35.6 µM
[3]
  GI50: 22.2 µM
  TGI: 53.5 µM
[4]
  GI50: 19500 nM
  TGI: 52.8 µM
[5]
  GI50: 32 µM
  TGI: > 100 µM
[6]
  GI50: 15 µM
  TGI: 31.8 µM
[7]
  GI50: 12100 nM
  TGI: 34.3 µM
[8]
  GI50: 1970 nM
  TGI: 22.1 µM
[9]
  GI50: 31.4 µM
  TGI: > 100 µM
[10]
  GI50: 17300 nM
  TGI: 50.9 µM

## N#CSc1ncnc2nc[nH]c12
[1]
  GI50: 3320 nM
  TGI: 25.6 µM
[2]
  GI50: 3.53 µM
  TGI: > 100 µM
[3]
  GI50: 9.96 µM
  TGI: > 100 µM
[4]
  GI50: 1660 nM
  TGI: > 31.6 µM
[5]
  GI50: 2.37 µM
  TGI: > 100 µM
[6]
  GI50: 24.1 µM
  TGI: > 100 µM
[7]
  GI50: 2010 nM
  TGI: 30.1 µM
[8]
  GI50: 4280 nM
  TGI: > 100 µM
[9]
  GI50: 9.69 µM
  TGI: > 100 µM
[10]
  GI50: 50200 nM
  TGI: > 100 µM

## CCCC(O)[C@@H](O)c1ccc2c(c1O)C(=O)c1c(OC)cccc1C2=O (some centres undefined)
[1]
  TGI: 42.1 µM
[2]
  TGI: > 100 µM
[3]
  TGI: > 100 µM
[4]
  TGI: > 100 µM
[5]
  TGI: > 100 µM
[6]
  TGI: > 100 µM
[7]
  TGI: > 100 µM
[8]
  TGI: 69.2 µM
[9]
  TGI: > 100 µM
[10]
  TGI: > 100 µM

## CCn1c(-c2nonc2N)nc2cncc(C(=O)N3CCNCC3)c21
[1]
  GI50: > 25000 nM
  TGI: > 25 µM
[2]
  GI50: > 25 µM
  TGI: > 25 µM
[3]
  GI50: > 25 µM
  TGI: > 25 µM
[4]
  GI50: > 25000 nM
  TGI: > 25 µM
[5]
  GI50: > 25 µM
  TGI: > 25 µM
[6]
  GI50: > 25 µM
  TGI: > 25 µM
[7]
  GI50: > 25000 nM
  TGI: > 25 µM
[8]
  GI50: > 25000 nM
  TGI: > 25 µM
[9]
  GI50: > 25 µM
  TGI: > 25 µM
[10]
  GI50: > 25000 nM
  TGI: > 25 µM

## COC(=O)c1[nH]c(=S)[nH]c(=O)c1-c1ccc(Cl)cc1
[1]
  TGI: > 50 µM
[2]
  TGI: > 50 µM
[3]
  TGI: > 50 µM
[4]
  TGI: > 50 µM
[5]
  TGI: > 50 µM
[6]
  TGI: > 50 µM
[7]
  TGI: > 50 µM
[8]
  TGI: > 50 µM
[9]
  TGI: > 50 µM
[10]
  TGI: > 50 µM

## O=C1C/C(=C/c2ccc(/C=C3/CC(=O)N(c4cccc(Br)c4)C3=O)cc2)C(=O)N1c1cccc(Br)c1
[1]
  TGI: > 100 µM
[2]
  TGI: > 100 µM
[3]
  TGI: > 100 µM
[4]
  TGI: > 100 µM
[5]
  TGI: > 100 µM
[6]
  TGI: > 100 µM
[7]
  TGI: > 100 µM
[8]
  TGI: 98.6 µM
[9]
  TGI: > 100 µM
[10]
  TGI: > 100 µM
